Like-named read-outs stand apart in the source and are kept apart here.
Experiments:
α1β3(Y284F) GABAAR = molecular target: T1, α1β3(Y284F) GABAAR (UniProt P28472+P62813, Y309F); test: [3H]muscimol binding to HEK cell membranes, β3 intrasubunit site mutant; set-up: species or system rat α1, human β3; details: for Emax (% of control) of [3H]muscimol binding: 100% means no effect
T1 construct: expressed in transfected cells; host or cells: HEK293S GnTI- (ATCC CRL-3022), transient
Method: (§1) The human α1 and β3 GABAAR subunits were subcloned into pcDNA3 for molecular manipulations and cRNA synthesis. Using QuikChange Site-Directed Mutagenesis Kit (Agilent Technologies, Santa Clara, CA), a FLAG tag was first added to the α1 subunit then an 8xHis tag was added to generate the following His-FLAG tag tandem ([…]), inserted between the fourth and fifth residues of the mature peptide. The α1 and β3 subunits were then transferred into the pcDNA4/TO and pcDNA5/TO vectors (Thermo Fisher Scientific), respectively, for tetracycline inducible expression. Transient expression was done using the GABAAR subunits rat α1FLAG ([Ueno et al., 1996]) and human β3 obtained from Geoffrey White (Neurogen, Branford, CT), each were subcloned into pcDNA3 for molecular manipulations and cRNA synthesis. Point mutations were generated using the QuikChange Site-Directed Mutagenesis Kit (Agilent) and the coding region was fully sequenced prior to use. The cDNAs were linearized with XbaI (NEB Labs, Ipswich, MA), and the cRNAs were generated using T7 mMessage mMachine (Ambion, Austin, TX).
(§2) [^3H]muscimol-binding assays were performed using a previously described method ([Chen et al., 2019]). […] Assay tubes were incubated for 1 hr on ice in the dark. […] Membranes were collected on Whatman/GF-C glass filter papers using a Brandel cell harvester (Gaithersburg, MD). To perform [^3H]muscimol binding isotherms, 100 μg/ml aliquots of membrane protein were incubated with 0.3 nM–1 μM [^3H]muscimol for 1 hr on ice in the dark. The specific activity for [^3H]muscimol concentrations from 30 nM to 1 μM was reduced to 2 Ci/mmol by dilution with nonradioactive muscimol. The membranes were collected on Whatman/GF-B glass filter papers using a vacuum manifold. […] For [^3H]muscimol-binding experiments examining competitive interactions between neurosteroids, the combined neurosteroids (0.3 μM 3α5αP or 3 μM KK148 ±30 μM KK150) or the same volume of dimethyl sulfoxide (DMSO) were added to the membranes which were then incubated with 3 nM [^3H]muscimol on ice for 1 hr. Time courses of neurosteroid [^3H]muscimol binding enhancement were examined by adding 10 µM of neurosteroids (3α5αP, 3β5αP) to membranes that had been fully equilibrated with 3 nM [^3H]muscimol for 1 hr on ice; binding was then measured as a function of time at 1, 3, 10, 30, 60 min. The membranes were collected on Whatman/GF-B glass filter papers using a vacuum manifold. Radioactivity bound to the filters was measured by liquid scintillation spectrometry using Bio-Safe II (Research Products International, Mount Prospect, IL).

α1β3 GABAAR WT = molecular target: T2, α1β3 GABAAR WT (Homo sapiens, UniProt P14867+P28472); test: [3H]muscimol binding to HEK cell membranes (neurosteroid modulation and isotherms), WT receptor; details: for Emax (% of control) of [3H]muscimol binding: 100% means no effect; for Bmax of [3H]muscimol binding isotherm in the presence of the modulator: etomidate 100 μM, 3α5αP 30 μM, KK148 30 μM, control 9.8 ± 0.8
T2 construct: inserted between the fourth and fifth residues of the mature peptide; photolabeling full-length heteropentameric GABAARs in native membranes; expressed in transfected cells
T2 sequence (P14867 28-456): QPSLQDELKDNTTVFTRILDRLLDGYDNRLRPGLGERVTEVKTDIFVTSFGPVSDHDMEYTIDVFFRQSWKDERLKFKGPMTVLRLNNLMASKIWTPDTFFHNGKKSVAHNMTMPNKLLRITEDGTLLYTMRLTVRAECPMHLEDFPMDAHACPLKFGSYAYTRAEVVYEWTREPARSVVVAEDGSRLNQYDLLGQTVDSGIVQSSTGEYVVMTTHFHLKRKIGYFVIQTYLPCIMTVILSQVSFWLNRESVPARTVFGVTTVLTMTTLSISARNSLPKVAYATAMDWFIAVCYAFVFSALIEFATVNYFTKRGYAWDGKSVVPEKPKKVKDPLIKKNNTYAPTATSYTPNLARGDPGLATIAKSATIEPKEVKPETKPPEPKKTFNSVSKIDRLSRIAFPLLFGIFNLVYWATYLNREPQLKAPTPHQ
T2 sequence (P28472 26-473): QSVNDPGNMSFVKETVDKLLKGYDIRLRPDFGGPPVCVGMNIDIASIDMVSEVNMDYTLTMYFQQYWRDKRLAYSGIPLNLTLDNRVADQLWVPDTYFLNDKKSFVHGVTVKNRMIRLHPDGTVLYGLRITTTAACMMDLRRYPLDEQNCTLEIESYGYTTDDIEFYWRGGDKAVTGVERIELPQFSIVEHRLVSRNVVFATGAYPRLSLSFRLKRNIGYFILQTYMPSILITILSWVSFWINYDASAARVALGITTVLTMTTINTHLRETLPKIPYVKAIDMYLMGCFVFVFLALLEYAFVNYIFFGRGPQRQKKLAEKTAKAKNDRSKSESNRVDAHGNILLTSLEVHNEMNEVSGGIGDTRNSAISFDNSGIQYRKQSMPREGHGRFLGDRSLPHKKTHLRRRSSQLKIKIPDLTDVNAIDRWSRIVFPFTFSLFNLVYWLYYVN
Method: Stably transfected cells were plated into dishes. After reaching 50% confluence, GABAA receptors were expressed by inducing cells with 1 μg/ml of doxycycline with the addition of 5 mM sodium butyrate. Cells were harvested 48 to 72 hr after induction. HEK cells, after induction, were grown to 100% confluence, harvested and washed with 10 mM potassium phosphate, 100 mM potassium chloride (pH 7.5) plus protease inhibitors (Sigma-Aldrich, St. Louis, MO) two times. The cells were collected by centrifugation at 1,000 g at 4°C for 5 min. The cells were homogenized with a glass mortar and a Teflon pestle for ten strokes on ice. The pellet containing the membrane proteins was collected after centrifugation at 20,000 g at 4°C for 45 min and resuspended in a buffer containing 10 mM potassium phosphate, 100 mM potassium chloride (pH 7.5). The protein concentration was determined with micro-BCA protein assay and membranes were stored at −80°C.
as §2

α1(Q242L)β3 GABAAR = α1(Q242L)β3 GABAAR (UniProt P28472+P62813, Q268L); test: [3H]muscimol binding to HEK cell membranes, intersubunit site mutant; set-up: expressed in transfected cells; host or cells: HEK293S GnTI- (ATCC CRL-3022), transient; species or system rat α1, human β3; details: for Emax (% of control) of [3H]muscimol binding: 100% means no effect
Method: as §1, §2

α1(N408A/Y411F)β3 GABAAR = molecular target: T3, α1(N408A/Y411F)β3 GABAAR (UniProt P28472+P62813, N434A/Y437F); test: [3H]muscimol binding to HEK cell membranes, α1 intrasubunit site mutant; set-up: species or system rat α1, human β3; details: for Emax (% of control) of [3H]muscimol binding: 100% means no effect; for Bmax of [3H]muscimol binding isotherm in the presence of the modulator: etomidate 100 μM, 3α5αP 30 μM, KK148 30 μM, control 0.90 ± 0.18
T3 construct: expressed in transfected cells; host or cells: HEK293S GnTI- (ATCC CRL-3022), transient
Method: as §1, §2

[1] = α1(N408A/Y411F)β3, 3 nM [3H]muscimol
[2] = WT α1β3, 3 nM [3H]muscimol, 1 hr on ice, read-out: EC50 for modulation of [3H]muscimol binding

SMILES | Hill slope for modulation of [3H]muscimol binding (α1β3(Y284F) GABAAR; α1β3(Y284F), 3 nM [3H]muscimol) | Emax (% of control) of [3H]muscimol binding (α1β3(Y284F) GABAAR; α1β3(Y284F), 3 nM [3H]muscimol) | EC50 (α1β3 GABAAR WT) [nM] | Hill slope for modulation of [3H]muscimol binding (α1β3 GABAAR WT; WT α1β3, 3 nM [3H]muscimol) | Emax (% of control) of [3H]muscimol binding (α1β3 GABAAR WT; WT α1β3, 3 nM [3H]muscimol) | Bmax of [3H]muscimol binding isotherm in the presence of the modulator (α1β3 GABAAR WT; WT α1β3) [pmol/mg] | EC50 (α1(Q242L)β3 GABAAR) [nM] | Hill slope for modulation of [3H]muscimol binding (α1(Q242L)β3 GABAAR; α1(Q242L)β3, 3 nM [3H]muscimol) | Emax (% of control) of [3H]muscimol binding (α1(Q242L)β3 GABAAR; α1(Q242L)β3, 3 nM [3H]muscimol) | EC50 (α1(N408A/Y411F)β3 GABAAR) [nM] | Hill slope for modulation of [3H]muscimol binding (α1(N408A/Y411F)β3 GABAAR; [1]) | Emax (% of control) of [3H]muscimol binding (α1(N408A/Y411F)β3 GABAAR; [1]) | Bmax of [3H]muscimol binding isotherm in the presence of the modulator (α1(N408A/Y411F)β3 GABAAR; α1(N408A/Y411F)β3) [pmol/mg] | EC50 (α1β3 GABAAR WT; [2]) [nM] | further results
CC(=O)[C@H]1CC[C@H]2[C@@H]3CC[C@H]4C[C@H](O)CC[C@]4(C)[C@H]3CC[C@]12C [3α5αP, allopregnanolone] | 0.87 ± 0.16 | 342.3 ± 13.9 % of control | 240 ± 40 | 1.10 ± 0.14 | 374.1 ± 11.1 % of control | 10.3 ± 0.7 | 2660 | 1.16 ± 0.37 | **159.8 ± 10.9 % of control | 2300 | 0.87 ± 0.44 | **146.0 ± 9.3 % of control | 0.93 ± 0.16 | – | EC50 (α1β3(Y284F) GABAAR): 190 ± 40 nM; Decrease of enhancement of [3H]muscimol binding by mutation (α1(Q242L)β3 GABAAR; β3(+)–α1(-) intersubunit site mutation vs WT): ~ 80%; Decrease of enhancement of [3H]muscimol binding by mutation (α1(N408A/Y411F)β3 GABAAR; α1 intrasubunit site mutation vs WT): ~ 80%
CC(=O)[C@H]1CC[C@H]2[C@@H]3CC[C@H]4C[C@@H](O)CC[C@]4(C)[C@H]3CC[C@]12C [3β5αP, epi-allopregnanolone] | – | **148.6 ± 4.9 % of control | 260 ± 70 | 0.89 ± 0.26 | 195.6 ± 5.7 % of control | – | 270 ± 90 | 0.77 ± 0.21 | 204.3 ± 4.5 % of control | 610 ± 260 | 2.25 ± 0.92 | **124.3 ± 2.6 % of control | – | – | Time constant (τ) of enhancement of [3H]muscimol binding (α1β3 GABAAR WT; 10 µM neurosteroid added to membranes equilibrated with 3 nM [3H]muscimol, 4°C): 3.97 ± 0.15 min
C#CCCO[C@H]1CC[C@H]2[C@@H]3CC[C@H]4CC5(CC[C@]4(C)[C@H]3CC[C@]12C)N=N5 [KK148] | 1.35 ± 0.13 | **357.2 ± 8.1 % of control | – | 1.36 ± 0.16 | 431.0 ± 19.5 % of control | 10.8 ± 0.9 | – | 1.24 ± 0.12 | 434.5 ± 5.6 % of control | – | 0.73 ± 0.23 | **161.7 ± 3.5 % of control | 0.85 ± 0.22 | 2400 ± 360 | EC50 (α1β3(Y284F) GABAAR; α1β3(Y284F), 3 nM [3H]muscimol, read-out: EC50 for modulation of [3H]muscimol binding): 1790 ± 440 nM; EC50 (α1(Q242L)β3 GABAAR; α1(Q242L)β3, 3 nM [3H]muscimol, read-out: EC50 for modulation of [3H]muscimol binding): 2200 ± 310 nM; EC50 (α1(N408A/Y411F)β3 GABAAR; α1(N408A/Y411F)β3, 3 nM [3H]muscimol, read-out: EC50 for modulation of [3H]muscimol binding): 1630 ± 530 nM
C#CCCO[C@@H]1CC[C@H]2[C@@H]3CC[C@H]4CC5(CC[C@]4(C)[C@H]3CC[C@]12C)N=N5 [KK150] | – | – | – | 1.12 ± 0.42 | 142.5 ± 3.9 % of control | – | – | – | – | – | – | – | – | 2760 ± 2320 | Effect on enhancement of [3H]muscimol binding by 3α5αP and KK148 (α1β3 GABAAR WT; 30 μM KK150 with 0.3 μM 3α5αP or 3 μM KK148, 3 nM [3H]muscimol): inhibited
NCc1cc(=O)[nH]o1 [muscimol] | – | – | – | – | – | – | – | – | – | – | – | – | – | – | Bmax of [3H]muscimol binding isotherm (α1β3(Y284F) GABAAR; α1β3(Y284F)): 10.6 ± 0.9 (P > 0.99 vs. WT) pmol/mg; Kd (α1β3(Y284F) GABAAR; α1β3(Y284F), read-out: Kd of [3H]muscimol binding isotherm): 46.6 ± 3.8 nM; Bmax of [3H]muscimol binding isotherm (α1β3 GABAAR WT; WT α1β3): 12.1 ± 1.4 pmol/mg; Kd (α1β3 GABAAR WT; WT α1β3, 0.3 nM–1 μM [3H]muscimol, read-out: Kd of [3H]muscimol binding isotherm): 48.1 ± 4 nM; Bmax of [3H]muscimol binding isotherm (α1(Q242L)β3 GABAAR; α1(Q242L)β3): 9.9 ± 0.6 (P > 0.99 vs. WT) pmol/mg; Kd (α1(Q242L)β3 GABAAR; α1(Q242L)β3, read-out: Kd of [3H]muscimol binding isotherm): 44.3 ± 4.6 nM; Bmax of [3H]muscimol binding isotherm (α1(N408A/Y411F)β3 GABAAR; α1(N408A/Y411F)β3): 0.9 ± 0.1 (*P < 0.01 vs. WT) pmol/mg; Kd (α1(N408A/Y411F)β3 GABAAR; α1(N408A/Y411F)β3, read-out: Kd of [3H]muscimol binding isotherm): 60.7 ± 7.5 nM

Source: paper PMC7532004, “Site-specific effects of neurosteroids on GABAA receptor activation and desensitization” (eLife, 2020)
